Experimental data as given in patent US9670166B2, “Substituted bicyclic dihydropyrimidinones and their use as inhibitors of neutrophil elastase activity” (Boehringer Ingelheim International GmbH, priority 2013, dated 2017).
Where “and” joins values, the source holds several entries; their conditions need not be identical. Equal entries are not always repeated.

Columns and labels:
[1] = Metabolic stability with human liver microsomes; conditions: pooled human liver microsomes 1 mg/ml, test compound 1 μM, 37° C., NADPH
Aqueous solubility = format: physicochemical; conditions: McIlvaine buffer pH 6.8, 2.5% DMSO, 24 h shaking
Experimental: Assay for Determination of Aqueous Solubility […] After 24 h of shaking, the solutions or suspensions are filtered and analyzed by LC-UV. The amount dissolved in buffer is compared to the amount dissolved in the acetonitrile/water (1/1) solution.

Caco-2 cells = assay: Drug transport across human Caco-2 cells; format: in vitro ADME; conditions: for PEAB: apical-to-basal; for PEAB / PEBA: Caco-2 monolayers, pH 7.2, 37° C.; for PEBA: basal-to-apical; for Efflux ratio: PEBA/PEAB
Text: Assay for Determination of Drug Transport Across Human Caco-2 Cells
The assay provides information on the potential of a compound to pass the cell membrane, on the extent of oral absorption as well as on whether the compound is actively transported by uptake and/or efflux transporters.
The compounds are assigned to permeability/absorption classes by comparison of the AB permeabilities with the AB permeabilities of reference compounds with known in vitro permeability and oral absorption in the human. Identical or similar permeabilities in both transport directions indicate passive permeation, vectorial permeability points to additional active transport mechanisms. […] Active transport is concentration-dependently saturable.
Caco-2 cells (1-2*10^5 cells/cm^2 area) are seeded on filter inserts (Costar transwell polycarbonate or PET filters, 0.4 μm pore size) and cultured (DMEM) for 10 to 25 days. Compounds are dissolved in appropriate solvent (like DMSO, 1-20 mM stock solutions). […] The transport solution (TL) is applied to the apical or basolateral donor side for measuring A-B or B-A permeability (3 filter replicates), respectively. The receiver side contains HTP-4 buffer supplemented with 2% BSA. […] Sampled receiver volumes are replaced with fresh receiver solution.

[2] = Metabolic stability with human hepatocytes; format: in vitro ADME; conditions: human hepatocyte suspension, 1 μM, scaled by well stirred model
Experimental: The cells are incubated for six hours (incubator, orbital shaker) and samples (25 μl) are taken at 0, 0.5, 1, 2, 4 and 6 hours. Samples are transferred into acetonitrile and pelleted by centrifugation (5 min) The supernatant is transferred to a new 96-deepwell plate, evaporated under nitrogen and resuspended. The decline of parent compound is analyzed by LC-MS/MS.
The intrinsic clearance CL_[sequence] is calculated as follows: CL_[sequence]=Dose/AUC=(C0/CD)/(AUD+clast/k)*1,000/60
(C0: initial concentration in the incubation [μM], CD: cell density of vital cells [10^6 cells/mL], AUD: area under the data [μM*h], clast: concentration of last data point [μM], k: slope of the regression line for parent decline [h^−1])
The calculated in vitro hepatic intrinsic clearance can be scaled up to the intrinsic in vivo hepatic clearance and used to predict hepatic in vivo blood clearance (CL) by the use of a liver model (well stirred model): CL_[sequence]_INVIVO [ml/min/kg]=(CL_[sequence] [μL/min/10^6 cells]*hepatocellularity [10^6 cells/g liver]*liver factor [g/kg bodyweight])/1,000 CL [ml/min/kg]=CL_[sequence]_INVIVO [ml/min/kg]*hepatic blood flow [ml/min/kg]/(CL_[sequence]_INVIVO [ml/min/kg]+hepatic blood flow [ml/min/kg]) Qh [%]=CL [ml/min/kg]/hepatic blood flow [ml/min/kg])

Row | Structure (SMILES) | t1/2 INVITRO [1] [h] | Aqueous solubility (Aqueous solubility) [µg/mL] | CL (predicted human hepatic in vivo blood clearance) [2] [mL/min/kg] | also measured
1 | CCNC(=O)N1C(=O)N(c2ccnc(C(F)(F)F)c2)C2=C(C(=O)CC2)C1c1ccc(C#N)cc1 (racemic) [Example 54.2] | >2.17 |  |  | 
2 | CS(=O)(=O)c1cc(C#N)ccc1[C@@H]1C2=C(CCC2=O)N(c2cccc(C(F)(F)F)c2)C(=O)N1C(=O)NC1CC1 [Example 47.4] | >2.17 | 19 |  | PEAB (Caco-2 cells): 7.74 ×10⁻⁶ cm/s; PEBA (Caco-2 cells): 85.5 ×10⁻⁶ cm/s
3 | CS(=O)(=O)c1cc(C#N)ccc1C1C2=C(CCC2=O)N(c2cccc(C(F)(F)F)c2)C(=O)N1CC(=O)N1CC2CC2C1 (centres unmarked) [Example 22.4] | >2.17 |  |  | 
4 | N#Cc1ccc([C@@H]2C3=C(CCC3=O)N(c3cccc(C(F)(F)F)c3)C(=O)N2C(=O)NCCO)cc1 [Example 7.2A, (R)-4-(4-Cyanophenyl)-N-(2-hydroxyethyl)-2,5-dioxo-1-(3-(trifluoromethyl)phenyl)-4,5,6,7-tetrahydro-1H-cyclopenta[d]pyrimidine-3(2H)-carboxamide] |  |  | 0 | 
5 | N#Cc1ccc(C2C3=C(CCC3=O)N(c3cccc(C(F)(F)F)c3)C(=O)N2CC(=O)N2CCC2)cc1 (centres unmarked) [Example 6.3] | >2.17 |  | 4 | 
6 | N#Cc1ccc(C2C3=C(CCC3=O)N(c3cccc(C(F)(F)F)c3)C(=O)N2C(=O)N[C@H]2COC[C@H]2O)cc1 (some centres unmarked) [Example 42.6] |  | 67 | 5 | 
7 | CNC(=O)N1C(=O)N(c2cccc(C(F)(F)F)c2)C2=C(C(=O)CC2)[C@H]1c1ccc(C#N)cc1 [Example 7.1A, (R)-4-(4-Cyanophenyl)-N-methyl-2,5-dioxo-1-(3-(trifluoromethyl)phenyl)-4,5,6,7-tetrahydro-1H-cyclopenta[d]pyrimidine-3(2H)-carboxamide] |  |  | 3 | 
8 | CS(=O)(=O)c1cc(C#N)ccc1C1C2=C(CCC2=O)N(c2cccc(C(F)F)c2)C(=O)N1C(=O)NC1CC1 (centres unmarked) [Example 53.3] |  | 34 |  | 
9 | CC(C)(O)CNC(=O)N1C(=O)N(c2cccc(C(F)(F)F)c2)C2=C(C(=O)CC2)[C@H]1c1ccc(C#N)cc1 [Example 41A, (R)-4-(4-Cyanophenyl)-N-(2-hydroxy-2-methylpropyl)-2,5-dioxo-1-(3-(trifluoro-methyl)phenyl)-4,5,6,7-tetrahydro-1H-cyclopenta[d]pyrimidine-3(2H)-carboxamide] |  |  | 0 | 
10 | N#Cc1ccc(C2C3=C(CCC3=O)N(c3cccc(C(F)(F)F)c3)C(=O)N2C(=O)NC2CCOCC2)cc1 (centres unmarked) [Example 41.16] | >2.17 |  |  | Efflux ratio (Caco-2 cells): 1.0
11 | CS(=O)(=O)c1cc(C#N)ccc1C1NC(=O)N(c2cccc(C(F)F)c2)C2=C1C(=O)CC2 (centres unmarked) [Example 15.4, 4-(1-(3-(difluoromethyl)phenyl)-2,5-dioxo-2,3,4,5,6,7-hexahydro-1H-cyclopenta[d]pyrimidin-4-yl)-3-(methylsulfonyl)benzonitrile] |  |  | 0 | 
12 | CN(C)C(=O)CN1C(=O)N(c2cccc(C(F)(F)F)c2)C2=C(C(=O)CC2)C1c1ccc(C#N)cc1 (centres unmarked) [Example 6.2] |  |  | 6 | 
13 | CS(=O)(=O)CCNC(=O)N1C(=O)N(c2cccc(C(F)(F)F)c2)C2=C(C(=O)CC2)C1c1ccc(C#N)cc1F (centres unmarked) [Example 49.3] | >2.17 | 32 | 0 | 
14 | CS(=O)(=O)c1cc(C#N)ccc1[C@H]1NC(=O)N(c2cccc(C(F)(F)F)c2)C2=C1C(=O)CC2 [example 10A, (S)-4-(2,5-Dioxo-1-(3-(trifluoromethyl)phenyl)-2,3,4,5,6,7-hexahydro-1H-cyclopenta[d]pyrimidin-4-yl)-3-(methylsulfonyl)benzonitrile] |  |  | 0 | AB permeability (comparison in words) (Caco-2 cells; Caco-2, compared to example 44 disclosed in US 2011/0034433): improved AB permeability
15 | CCS(=O)(=O)c1cc(C#N)ccc1C1NC(=O)N(c2cccc(C(F)(F)F)c2)C2=C1C(=O)CC2 (centres unmarked) [Example 14, 4-(2,5-Dioxo-1-(3-(trifluoromethyl)phenyl)-2,3,4,5,6,7-hexahydro-1H-cyclopenta[d]pyrimidin-4-yl)-3-(ethylsulfonyl)benzonitrile] |  |  | 4 | 
16 | CN1C(=O)N(c2cccc(C(F)(F)F)c2)C2=C(C(=O)CC2)[C@H]1c1ccc(C#N)cc1S(C)(=O)=O [Example 25, (S)-4-(3-Methyl-2,5-dioxo-1-(3-(trifluoromethyl)phenyl)-2,3,4,5,6,7-hexahydro-1H-cyclopenta[d]pyrimidin-4-yl)-3-(methylsulfonyl)benzonitrile] |  |  | 2 | 
17 | N#Cc1ccc([C@@H]2C3=C(CCC3=O)N(c3cccc(C(F)F)c3)C(=O)N2C(=O)NCCCO)cc1 [Example 52A, (R)-4-(4-Cyanophenyl)-1-(3-(difluoromethyl)phenyl)-N-(3-hydroxypropyl)-2,5-dioxo-4,5,6,7-tetrahydro-1H-cyclopenta[d]pyrimidine-3(2H)-carboxamide] |  |  | 8 | 

Row | Structure (SMILES) | t1/2 INVITRO [1] [h] | Aqueous solubility (Aqueous solubility) [µg/mL] | CL (predicted human hepatic in vivo blood clearance) [2] [mL/min/kg] | also measured
18 | N#Cc1ccc(C2C3=C(CCC3=O)N(c3cccc(C(F)(F)F)c3)C(=O)N2C(=O)NC2(CO)CC2)cc1 (centres unmarked) [Example 41.5] |  |  |  | Efflux ratio (Caco-2 cells): 8.7; PEBA (Caco-2 cells): 77 ×10⁻⁶ cm/s
19 | CS(=O)(=O)c1cc(C#N)ccc1[C@@H]1C2=C(CCC2=O)N(c2cccc(C(F)(F)F)c2)C(=O)N1CC#N [Example 23, (S)-4-(3-(Cyanomethyl)-2,5-dioxo-1-(3-(trifluoromethyl)phenyl)-2,3,4,5,6,7-hexahydro-1H-cyclopenta[d]pyrimidin-4-yl)-3-(methylsulfonyl)benzonitrile] |  |  | 0 | 
20 | C[C@H](O)CNC(=O)N1C(=O)N(c2cccc(C(F)(F)F)c2)C2=C(C(=O)CC2)C1c1ccc(C#N)cc1 (some centres unmarked) [Example 41.1] | >2.17 |  | 2 | Efflux ratio (Caco-2 cells): 8.9 and 4.8
21 | CS(=O)(=O)c1cc(C#N)ccc1C1C2=C(CCC2=O)N(c2cccc(C(F)(F)F)c2)C(=O)N1CCCO (centres unmarked) [Example 24.1] | 1.67 |  |  | 
22 | CS(=O)(=O)N1C(=O)N(c2cccc(C(F)(F)F)c2)C2=C(C(=O)CC2)[C@H]1c1ccc(C#N)cc1 [Example 9A, (R)-4-(3-(Methylsulfonyl)-2,5-dioxo-1-(3-(trifluoromethyl)phenyl)-2,3,4,5,6,7-hexahydro-1H-cyclopenta[d]pyrimidin-4-yl)benzonitrile] |  |  | 0 | 
23 | N#Cc1ccc([C@@H]2C3=C(CCC3=O)N(c3cccc(C(F)(F)F)c3)C(=O)N2C(=O)N[C@H]2CCC[C@@H]2O)cc1 [Example 45.4] | >2.17 | 28 |  | Efflux ratio (Caco-2 cells): 2.0; PEAB (Caco-2 cells): 38.1 ×10⁻⁶ cm/s; PEBA (Caco-2 cells): 77.2 ×10⁻⁶ cm/s
24 | C[C@H](CO)NC(=O)N1C(=O)N(c2cccc(C(F)(F)F)c2)C2=C(C(=O)CC2)C1c1ccc(C#N)cc1 (some centres unmarked) [Example 41.4] | >2.17 |  | 5 | Efflux ratio (Caco-2 cells): 8.7
25 | C[S+]([O-])CCNC(=O)N1C(=O)N(c2cccc(C(F)(F)F)c2)C2=C(C(=O)CC2)C1c1ccc(C#N)cc1 (centres unmarked) [Example 7.6] | >2.17 |  |  | 
26 | CC(C)(O)CCNC(=O)N1C(=O)N(c2cccc(C(F)(F)F)c2)C2=C(C(=O)CC2)C1c1ccc(C#N)cc1 (centres unmarked) [Example 41.17] | >2.17 |  | 3 | Efflux ratio (Caco-2 cells): 3.5
27 | CNC(=O)N1C(=O)N(c2cccc(C(F)(F)F)c2)C2=C(C(=O)CC2)C1c1ccc(C#N)cn1 (centres unmarked) [Example 50.1] |  |  | 1 | 
28 | CC(C)NC(=O)N1C(=O)N(c2cccc(C(F)(F)F)c2)C2=C(C(=O)CC2)[C@H]1c1ccc(C#N)cc1S(C)(=O)=O [Example 47.5] | >2.17 | 16 |  | PEAB (Caco-2 cells): 19.2 ×10⁻⁶ cm/s; PEBA (Caco-2 cells): 86.7 ×10⁻⁶ cm/s
29 | N#Cc1ccc(C2C3=C(CCC3=O)N(c3cccc(C(F)F)c3)C(=O)N2C(=O)NCCO)cc1 (centres unmarked) [Example 52.3] | >2.17 | 91 |  | 
30 | N#Cc1ccc(C2C3=C(CCC3=O)N(c3cccc(C(F)(F)F)c3)C(=O)N2C(=O)NCCCO)cc1 (centres unmarked) [Example 7.3] | >2.17 |  | 7 | Efflux ratio (Caco-2 cells): 7.1
31 | N#Cc1ccc([C@@H]2C3=C(CCC3=O)N(c3cccc(C(F)(F)F)c3)C(=O)N2C(=O)N[C@H]2COC[C@@H]2O)cc1 [Example 45.5] | >2.17 | 56 | 0 | 
32 | CC(C)(O)CNC(=O)N1C(=O)N(c2cccc(C(F)F)c2)C2=C(C(=O)CC2)C1c1ccc(C#N)cc1 (centres unmarked) [Example 52.5] | >2.17 | 70 |  | Efflux ratio (Caco-2 cells): 14.1; PEAB (Caco-2 cells): 4.45 ×10⁻⁶ cm/s; PEBA (Caco-2 cells): 62.7 ×10⁻⁶ cm/s
33 | N#Cc1ccc(C2C3=C(CCC3=O)N(c3cccc(C(F)(F)F)c3)C(=O)N2C(=O)N[C@@H]2CCC[C@H]2O)cc1 (some centres unmarked) [Example 42.3] | >2.17 | 20 |  | Efflux ratio (Caco-2 cells): 2.4; PEAB (Caco-2 cells): 36.2 ×10⁻⁶ cm/s; PEBA (Caco-2 cells): 86 ×10⁻⁶ cm/s
34 | CNC(=O)N1C(=O)N(c2cccc(C(F)F)c2)C2=C(C(=O)CC2)C1c1ccc(C#N)cc1 (centres unmarked) [Example 52.1] | >2.17 | 41 |  | Efflux ratio (Caco-2 cells): 1.0; PEAB (Caco-2 cells): 57.1 ×10⁻⁶ cm/s; PEBA (Caco-2 cells): 58.3 ×10⁻⁶ cm/s
